# Reference: patent US10335380B2, “Compounds suitable for the treatment of myeloproliferative neoplasms as well as methods for the diagnosis/prognosis of myeloproliferative neoplasms” (CNIC Fundacion Centro Nacional De investigaciones …, priority 2013, dated 2019)
# What was measured:
# [1] = test system: mice transplanted with MPN BM cells (JAK2-V617F); assay: In vivo pharmacological treatments of mice transplanted with MPN (Mx1-cre;JAK2-V617F) BM cells; design: species or system mouse
# Description: In Mx1-cre; JAK2-V617F double-transgenic mice, expression of the human JAK2-V617F mutation is driven by the endogenous Jak2 promoter and can be conditionally expressed in haematopoietic cells upon Myxovirus resistance-1 (Mx1)-driven Cre recombinase activation by polyinosine-polycytosine (plpC). PlpC-induced transgenic mice and wild-type mice transplanted with BM cells from these mice develop progressive symptoms of PV19,20.
# Age-matched, female wild-type C57BL/6J or Nes-gfp mice were used as recipients in bone marrow (BM) transplantation assays and for in vivo pharmacological treatments. […] Vehicle (saline solution) daily injections were performed in the same way. Unless indicated, treatment was initiated 4 weeks posttransplant, when animals evidenced peripheral blood signs of MPN. Mice were randomly distributed prior to treatment initiation, and disease development was monitored over time in peripheral blood samples, using an automated blood counter. […] The neuroprotective drug 4-methylcatechol (10 μg kg-1, i.p.) was injected once daily. The JAK inhibitor INCB018424 (S-Ruxilitinib, Abmole Bioscience) was administered by oral gavage (30 mg kg-1, twice per day separated 10-12 hours) in 0.5% hydroxypropylmethylcellulose (Sigma) after solubilisation in DMSO. The IL-1 receptor antagonist (Kineret, Sobi, Stockholm, Sweden) was administered by subcutaneous osmotic pumps (Alzet) infusing a continuous dosing of 40 mg kg-1 per day. Mice were sacrificed at different time points and subjected to complete necropsy; BM and spleen were analysed by histology and flow cytometry; femora and skull were used for immunostainings, and haematopoietic and stromal cells were additionally used for functional assays ex vivo.
# BM cell extraction, flow cytometry and fluorescence-activated cell sorting For haematopoietic cell recovery, bones were crushed in a mortar, filtered through a 40-μm mesh to obtain single cell suspensions, and depleted of red blood cells by lysis in 0.15 M NH4Cl for 10 min at 4° C. Spleen samples were homogenised and filtered prior to lysis; blood samples were directly lysed. Cells (1-2×10^6 cells per sample) were incubated with the appropriate dilution (2-5 μg ml-1) of fluorescent antibody conjugates and 4′,6-diamidino-2-phenylindole (DAPI) for dead cell exclusion, and analysed on LSRFortessa flow cytometer (BD Biosciences, Franklin Lakes, N.J.) equipped with FACSDiva Software (BD Biosciences). […] Biotinylated antibodies were detected with fluorochrome-conjugated streptavidin (BD Biosciences). Phenotypic populations of HSC were defined as long-term haematopoietic stem cells (HSCs) (lin− Sca1+c-kit+ (LSK) CD34− Flt3−), short-term HSCs (LSK CD34+ Flt3−) and multipotent progenitors (MPP) (LSK CD34+ Flt3+).
# Cells were filtered through a 40-μm mesh and erythrocytes were lysed as previously described. The resulting bone marrow-enriched cell suspensions were pelleted, washed and resuspended in PBS buffer containing 2% foetal calf serum (FCS) for further analyses. […] BM stromal CD45− CD31− Ter119− cells were further purified according to GFP fluorescence using a FACS Aria cell sorter (BD Bioscience). For the determination of apoptotic cells, samples were washed with PBS after surface antibody staining and subsequently stained with Annexin V-Pacific Blue and SYTOX AADvanced (Invitrogen, Life Technologies, Paisley, UK). For functional assays, cells were enriched by immunomagnetic depletion using biotinylated CD45 and Ter119. For immunophenotypic characterisation, total BM samples were studied by flow cytometry using the following additional antibodies: CD63 (NVG-2), CD105 (MJ7/18), CD140a (APA5), Vcam, CD51 (RMV-7), all from Biolegend; and CD90.2 from BD Biosciences.
# Immunofluorescence staining of cryostat sections was performed. For whole mount staining of the calvaria, all incubation times were extended. The antibodies used were TH (Rabbit pAb, Millipore) and GFAP (Rabbit pAb, Dako).
# [2] = cited from earlier work
# [3] = target: murine receptor (β3-adrenergic) (Mus musculus, UniProt P25962); settings: cited from earlier work
# Chain of murine receptor (β3-adrenergic) (P25962 whole entry): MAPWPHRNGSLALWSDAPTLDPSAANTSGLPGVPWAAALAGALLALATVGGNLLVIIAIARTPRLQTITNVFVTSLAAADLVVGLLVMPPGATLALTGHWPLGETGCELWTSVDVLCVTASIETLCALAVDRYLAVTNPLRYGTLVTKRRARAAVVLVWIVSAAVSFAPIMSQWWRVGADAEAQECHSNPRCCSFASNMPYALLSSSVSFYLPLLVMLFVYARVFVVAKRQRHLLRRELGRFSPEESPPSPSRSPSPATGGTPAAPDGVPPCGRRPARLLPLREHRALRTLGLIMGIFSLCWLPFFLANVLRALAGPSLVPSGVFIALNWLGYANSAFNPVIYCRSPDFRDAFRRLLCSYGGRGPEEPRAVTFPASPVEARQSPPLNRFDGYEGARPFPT
# [4] = test system: CD45+ haematopoietic cells from BM of Nes-gfp;Mx1-cre;JAK2-V617F mice and control littermates; assay: Colony-forming units in culture (CFU-C) with drug added in vitro; type: cell-based, mouse; settings: scored after one week in culture
# Description: Colony-forming units in culture (CFU-C) assay was performed. […] Colonies of more than 50 cells were scored after 7 days of incubation at 37° C., 5% CO2, 20% O2 in a water-jacketed incubator. For CFU-F assays, BM CD45− Ter119− cells were plated into 6-well dishes and cultured in maintenance medium (α-MEM, 15% FCS with antibiotics). After 10-12 days in culture, adherent cells were fixed with 100% methanol and stained with Giemsa stain (Sigma) to reveal fibroblastic clusters. Colonies with more than 50 cells were scored as CFU-F.
# BM-derived Schwann cells = assay: Co-culture of BM-derived Schwann cells with JAK2V617F+ BM LSK cells, apoptosis by TUNEL; type: cell-based, mouse; settings: IL1ra 200 ng ml-1, 24 h co-culture
# Description: For co-culture of BM-derived Schwann cells and MSCs with BM LSK cells from control and mutant mice, neonatal BM CD45− CD31− Ter119− Nes-GFP+ Pdgfrα−/+ cells containing Schwann cell precursors and MSCs, respectively (Isern J et al., submitted), were sorted and cultured under Schwann cell differentiation conditions, as previously described 34, or mesenchymal culture conditions, in MEMα supplemented with 10 ng ml-1 PDGFAB, 15% FBS. Both were co-cultured for 24 h with primary BM LSK cells isolated by FACS from control or mutant mice. Schwann cells derived from sorted GFP+ Pdgfrα− BM precursors were additionally incubated with IL1ra (200 ng ml-1) for the co-culture period. After 24 h of co-culture, haematopoietic cells were washed away and the remaining adherent Schwann cells were fixed and analysed for apoptosis by TUNEL.
# [5] = IL1ra 40 mg kg-1 per day, subcutaneous osmotic pumps, 18 weeks
molecule,measurement,setting,value
Nc1nc(CC(=O)Nc2ccc(CCNC[C@H](O)c3ccccc3)cc2)cs1 [Mirabegron],MPN progression,[1]; BRL37344 or Mirabegron 2 mg kg-1 i.p. twice a day,delays
same,several MPN markers (blood counts),"[1]; Mirabegron 2 mg kg-1 i.p. twice a day, last two weeks, 8 weeks after transplantation, to lower extent than BRL37344",improved
same,solubility,[2],poor
same,affinity for the murine receptor,[3],relatively low
Cc1ccc(O)c(O)c1 [4-methylcatechol],incipient MPN signs (haematological parameters),"[1]; 8 weeks after transplantation, treatment for the last 4 weeks",improved
same,mutant haematopoietic progenitor expansion,"[1]; early treatment, 4 weeks, BRL37344 2 mg kg-1 twice a day, 4-methylcatechol 10 μg kg-1 once daily",prevented
same,BM Schwann cells (Gfap immunostaining),"[1]; symptomatic MPN mice, 4-methylcatechol 10 μg kg-1 i.p. once daily over a month",preserved
same,MPN-associated neutrophilia,"[1]; symptomatic MPN mice, treatment started 4 weeks after transplantation, BRL37344 2 mg kg-1 i.p. twice a day, 4-methylcatechol 10 μg kg-1 i.p. once daily",prevented
same,growth of cultured haematopoietic progenitors (CFU-C),[4],neither 4-methylcatechol nor BRL37344 affected
"interleukin-1 receptor antagonist: IL-1 receptor antagonist (Kineret, Sobi, Stockholm, Sweden)",BM MSC frequency,[1]; [5],increased
same,caspase-1 mRNA expression in haematopoietic progenitors,[1]; [5],reduced
same,platelet counts,"[1]; IL1ra 40 mg kg-1 per day, subcutaneous osmotic pumps, 18 weeks, starting 2 weeks after transplant",reduced
same,3-fold higher apoptotic rate of Schwann cells co-cultured with JAK2V617F+ haematopoietic progenitors,BM-derived Schwann cells,blocked
